Assay results as given in patent US20190151304A1, “METHODS AND PHARMACEUTICAL COMPOSITIONS FOR THE TREATMENT OF AUTOIMMUNE INFLAMMATORY” (INSERM (INSTITUT NATIONAL DE LA SANTÉ ET DE LA RECHERCJAE …, priority 2016, published 2019).

Key:
DSS-induced colitis mice = DSS-induced colitis mice model (Disease Activity Index, colon length); type: in vivo, Balb/c mice; details: 5% DSS in drinking water; 20 μg daily ip, one week
From the text: FIG. 2: OXA ameliorates the DAI (weight and colitis score) of DSS-induced colitis mice. Mice were orally treated with 5% DSS for 7 days in the presence or in the absence of daily intraperitoneal injection of OxA (0.22 μmoles/kg). Left, determination of gain or loss of weight in the absence of DSS treatment (Control,▴), in the presence of DSS treatment (DSS,▪) and in the presence of DSS associated to OxA treatment (DSS+OxA,●). Right, evaluation of Disease Activity Index (DAI) scored by measuring weight, length of colon, diarrhea and blood presence in the stool in DSS untreated control mice (Control,A), in DSS treated mice (DSS,▪) and in DSS treated mice associated to OxA treatment (DSS+OxA,●).
FIG. 14: Effect of daily ip inoculation of OxA, Suvorexant and Almorexant on the length of colon from DSS—(dextran sulfate sodium) treated mice mimicking the acute ulcerative colitis disease. A. Mice were treated with 5% (w/v) DSS in drinking water and daily injected with 20 μg of OxA (OXA IP), 20 μg of Suvorexant (Suvo) or 20 μg of Almorexant (Almo). Control (wt) or treated DSS mice (DSS) were daily injected with 100 μl PBS. After one week of treatment, mice were sacrificed and the length of colon which represented a good marker of inflammation state, was measured. […] B. quantification of colon length from 5 different DSS-treated mice injected with OxA (DSS+OXA IP), Almorexant (DSS+Almo), Suvorexant (DSS+Suvo) or not injected (WT and DSS). NS, no significant; *, p<0.05; ** p<0.001
Based on these observations, we have investigated the effect of Orexin A (OxA) on acute inflammation in mice treated with Dextran Sulfate Sodium (DSS). OxA was preferentially chosen in these experiments since the presence of two disulphide bridges confers it more stability. DSS induces acute colitis characterized by weight loss, bloody diarrhea, intestinal ulcerations and infiltrations with granulocytes.
DSS-induced colitis mice models: Balb/c mice were orally treated by 5% (w/v) of Dextran Sulfate Sodium (DSS) for 7 days. Orexin treatment was carried out in DSS treated mice by daily intraperitoneal injection of OxA (0.22 μmoles/kg) for 7 days. Weight and colitis symptoms (diarrhea, blood in the stool . . . ) for each mouse was daily measured. After 7 days of treatment, animals were sacrificed and colons were resected to further analyses (size, histological aspect, cytokine assays).
The inventors have thus investigated the effect of daily intraperitoneal inoculation of OxA, Suvorexant and Almorexant in the experimental context of EXAMPLE 1 (colitis). In particular they investigated the effects of the drugs on the length of colon from DSS-(dextran sulfate sodium) treated mice mimicking the acute ulcerative colitis disease. […]

OX1R = target: T1, OX1R (Homo sapiens, UniProt O43613, A280G); assay: Ca2+ mobilization assay in HEK-OX1R cells (FluoForte); type: cell-based; details: pre-incubation 1 μM for 1 h, then 1 μM OxA
T1 construct: HEK cells expressing recombinant native OX1R (HEK-OX1R); expressed in transfected cells; host or cells: HEK cells (HEK-OX1R)
T1 sequence (O43613 1-425 A280G): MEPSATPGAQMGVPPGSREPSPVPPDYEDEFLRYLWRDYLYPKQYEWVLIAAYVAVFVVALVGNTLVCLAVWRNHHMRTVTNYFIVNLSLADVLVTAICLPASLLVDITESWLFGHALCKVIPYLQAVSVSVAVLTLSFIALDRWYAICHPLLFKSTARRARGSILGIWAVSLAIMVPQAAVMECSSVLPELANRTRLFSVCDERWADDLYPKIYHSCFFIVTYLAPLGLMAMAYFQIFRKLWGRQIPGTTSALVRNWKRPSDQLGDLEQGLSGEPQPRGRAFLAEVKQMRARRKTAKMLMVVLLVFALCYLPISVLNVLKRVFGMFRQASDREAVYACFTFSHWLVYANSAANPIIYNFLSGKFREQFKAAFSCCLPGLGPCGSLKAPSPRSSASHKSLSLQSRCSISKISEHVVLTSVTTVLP

HEK-OX1R cells = assay: Cells growth determination, HEK-OX1R cells; type: cell-based; details: 48 hr; OxA 0.1 μM, SB408124 increasing concentrations
Description: (§1) FIG. 12: Determination of the inhibition of cellular growth of HEK-OX1R cells and colon adenocarcinoma cells (HT-29) induced by 0.1 μM of OxA or various concentrations of SB408124 antagonist. HEK-OX1R cells (black column) and HT-29 cells (white column) were incubated with 0.1 μM of OxA and indicated increasing concentration of SB408124, and cells were counted after 48 hr incubation. Results are expressed as the percentage of total viable cells.
(§2) Cells growth determination and apoptosis assay: HEK-OX1R cells or colon adenocarcinoma HT-29 cells were seeded, grown and maintained at 37° C. in a humidified 5% CO2/air incubator. After 24 hr culture, cells were treated with or without Orexin-A peptide or SB408124 antagonist, previously dissolved in DMSO, to be tested at the concentration indicated in the figure legends. After 48 hr of treatment, adherent cells were harvested by Trip1E (Life Technologies, Saint Aubin, France) and manually counted. Apoptosis was determined using the Guava PCA system and the Guava nexin kit.

[1] = system: colon adenocarcinoma HT-29 cells; assay: Cells growth determination, HT-29 cells; type: cell-based; details: 48 hr; OxA 0.1 μM, SB408124 increasing concentrations
Description: as §1, §2

[2] = system: colon adenocarcinoma HT-29 cells; assay: Apoptosis assay (annexin V-PE binding, Guava nexin kit) in HT-29 cells; type: cell-based; details: 48 h; orexin-A 1 μM, SB408124 various concentrations
Description: FIG. 13: Effect of orexin-A and SB408124 antagonist on apoptosis in OX1R expressing colon adenocarcinoma cells, HT-29. HT-29 cells were challenged with 1 μM orexin-A or various concentration of SB408124 for 48 h. Apoptosis was measured by determination of annexin V-PE binding, and results are expressed as the percentage of apoptotic cells. Results are means±SE of three experiments. ***P<0.001.
as §2

Row | Compound | Protection from DSS induced acute ulcerative colitis (length of colon) (DSS-induced colitis mice) | Effect on OxA-induced Ca2+ mobilization in HEK-OX1R cells (OX1R) | Inhibition of cellular growth of HEK-OX1R cells (HEK-OX1R cells) | Inhibition of cellular growth of HT-29 cells [1] | Apoptosis in HT-29 cells [2]
1 | CNC(=O)[C@@H](c1ccccc1)N1CCc2cc(OC)c(OC)cc2[C@@H]1CCc1ccc(C(F)(F)F)cc1 [Almorexant] | protect mice from DSS induced acute ulcerative colitis disease | – | – | – | –
2 | Cc1cc(NC(=O)Nc2ccc(N(C)C)cc2)c2cc(F)cc(F)c2n1 [SB408124] | – | totally abolished | strong inhibition in a dose-dependent manner | strong inhibition in a dose-dependent manner | able to induce in a dose-dependent manner cell apoptosis
3 | Cc1ccc(-n2nccn2)c(C(=O)N2CCN(c3nc4cc(Cl)ccc4o3)CC[C@H]2C)c1 [Suvorexant] | protect mice from DSS induced acute ulcerative colitis disease | – | – | – | –
